Laboratory results as given in patent US20160115540A1, “PRODRUGS AND DRUGS” (Biogen MA Inc., priority 2013, published 2016).
Counter-ions that a name gives are not always drawn.

Tested on: jejunum
Assay: Transcriptional profiling on Affymetrix GeneChips, single dose, naïve mice: jejunum
Assay type: in vivo, C57BL/6 mice
Procedure: Treated mice were sacrificed at 2, 7, or 12 hours. Tissues (liver, spleen, kidney, jejunum, cortex, hippocampus, striatum and whole blood) were collected and analyzed by transcriptional profiling on mouse Affymetrix GeneChips.
Tissues (liver, spleen, kidney, jejunum, cortex, hippocampus, striatum and whole blood) were collected and analyzed by transcriptional profiling on mouse Affymetrix GeneChips.
Animals were exposed to CO2 and whole blood collected via cardiac puncture. Two 100 μl aliquots of whole blood were collected in 1.5 mL microcentrifuge tubes and snap frozen in liquid nitrogen. Peripheral (liver, spleen, kidney and jejunum) and CNS brain (cerebellum, hippocampus, striatum and cortex) tissues were harvested and snap frozen in liquid nitrogen, with special care taken to collect tissues of similar size and from the same location. All samples were stored at −80° C. until RNA extraction was conducted.
For RNA preparation, frozen tissues were placed in 2 mL RNAse-free 96-well blocks with 1.5 mL QIAzol Lysis Reagent (QIAgen) and a 3.2 mm stainless steel bead (BioSpec Products, Bartlesville, Okla.). Tissues were disrupted for four cycles of 45 seconds in a Mini-Beadbeater (Biospec Products). RNA was extracted in chloroform and the aqueous phase was mixed with an equal volume of 70% ethanol. Extracted RNA was applied to RNeasy 96 plates and purified by the spin method according to the manufacturer's protocol (RNeasy 96 Universal Tissue Protocol, QIAgen, Hilden Germany).
Automated sample amplifications and biotin labelings were carried out using the NuGEN Ovation RNA Amplification system V2 (Cat #3100), Ovation WB reagent (Cat #1300) and Encore Biotin module (Cat #4200) (NuGEN Technologies, Inc, San Carlos, Calif.) according to manufacturer's recommendations using an Arrayplex automated liquid handler (Beckman Coulter, Indianapolis, Ind.). Two micrograms of biotin labeled sscDNA probe were hybridized to Affymetrix GeneChip Affymetrix HT_MG-430_PM plate arrays with modified conditions as described in Allaire et al. Washing and staining of the hybridized arrays were completed as described in the GeneChip Expression analysis technical manual for HT plate arrays using the Genechip® Array Station (Affymetrix, Santa Clara, Calif.) with modifications as described in Allaire et al. The processed GeneChip® plate arrays were scanned using GeneTitan scanner (Affymetrix, Santa Clara, Calif.).
Affymetrix scans were subject to quality control (QC) measures. These tests included a visual inspection of the distribution of raw signal intensities and an assessment of RNA degradation, relative log expression (RLE), and normalized unsealed standard error (NUSE). All sample scans that passed these QC metrics were included in the analysis.
All CEL files were subjected to GC-content-based Robust Multi-array Average (GCRMA) normalization (version 2.20.0) (Irizarry R A, et al. Nucleic Acids Res 2003; 31:e15; Li C, et al. Genome Biol 2001; 2:[…]0032). Expression levels were log (base 2) transformed.
All calculations and analyses were carried out using R (version 2.11.1) and Bioconductor computational tools (Gentleman R. Springer Science+Business Media 2005).

[1] = 100DMF-vs-Veh or 100MMF-vs-Veh, 12 h

COC(=O)/C=C/C(=O)O [MMF, monomethyl fumarate]
FC Abcc3 (1428988_PM_at) [1]: 2.10 | FC Acsm5 (1437662_PM_at) [1]: 1.95 | FC Akr1b8 (1448894_PM_at) [1]: 18.78 | FC Akr1c12 (1450455_PM_s_at) [1]: 1.76 | FC Akr1c19 (1455454_PM_at) [1]: 3.53 | FC Blvrb (1451386_PM_at) [1]: 1.54 | FC Cbr3 (1427912_PM_at) [1]: 32.24 | FC Ces1e (1419510_PM_at) [1]: 2.77 | FC Ces1f (1424266_PM_s_at) [1]: 6.54 | FC Ces1g (1449486_PM_at) [1]: 9.45 | FC G6pd2 (1422327_PM_s_at) [1]: 1.83 | FC Gpx2 (1449279_PM_at) [1]: 1.54 | FC Gsr (1421816_PM_at) [1]: 2.67 | FC Gss (1441931_PM_x_at) [1]: 1.55 | FC Gsta2 (1421040_PM_a_at) [1]: 6.66 | FC Gsta2 (1421041_PM_s_at) [1]: 2.09 | FC Gsta3 (1423436_PM_at) [1]: 10.80 | FC Gsta3 (1423437_PM_at) [1]: 7.97 | FC Gstm1 (1425627_PM_x_at) [1]: 4.61 | FC Gstm1 (1448330_PM_at) [1]: 4.27 | FC Gstm3 (1427473_PM_at) [1]: 2.14 | FC Gstm3 (1427474_PM_s_at) [1]: 1.58 | FC Gstm4 (1424835_PM_at) [1]: 5.43 | FC Gstm6 (1422072_PM_a_at) [1]: 2.19 | FC Nqo1 (1423627_PM_at) [1]: 2.34 | FC Pir (1429001_PM_at) [1]: 4.19 | FC Setd4 (1425239_PM_at) [1]: 1.60 | FC Setd4 (1460373_PM_a_at) [1]: 1.56 | FC Slc5a4b (1422757_PM_at) [1]: 2.16 | FC Ugt2b5 (1419622_PM_at) [1]: 5.00 | FC Ugt2b35 (1439624_PM_at) [1]: 2.45 | FC Ugt2b36 (1455595_PM_at) [1]: 3.03 | FC 6-Sep (1424181_PM_at) (100MMF-vs-Veh, 2 h): 1.56 | FC 1443118_PM_at (100MMF-vs-Veh, 2 h): 1.69 | FC 1444265_PM_at (100MMF-vs-Veh, 2 h): 1.93 | FC 1445980_PM_at (100MMF-vs-Veh, 2 h): 2.43 | FC 1446045_PM_at (100MMF-vs-Veh, 2 h): 1.69 | FC 1447411_PM_at (100MMF-vs-Veh, 2 h): 2.81 | FC 1459091_PM_at (100MMF-vs-Veh, 2 h): 2.02 | FC 2010002N04Rik (1423306_PM_at) (100MMF-vs-Veh, 2 h): 1.57 | FC 9030409G11Rik (1434169_PM_at) (100MMF-vs-Veh, 2 h): 1.52 | FC 9130221J17Rik (1443159_PM_at) (100MMF-vs-Veh, 2 h): 2.36 | FC Acss2 (1446542_PM_at) (100MMF-vs-Veh, 2 h): 1.84 | FC Akr1b8 (1448894_PM_at) (100MMF-vs-Veh, 2 h): 8.24 | FC Akr1c19 (1455454_PM_at) (100MMF-vs-Veh, 2 h): 2.33 | FC Areg (1421134_PM_at) (100MMF-vs-Veh, 2 h): 2.71 | FC Blvrb (1451386_PM_at) (100MMF-vs-Veh, 2 h): 1.57 | FC Bmp2 (1423635_PM_at) (100MMF-vs-Veh, 2 h): −1.55 | FC Cbr1 (1460196_PM_at) (100MMF-vs-Veh, 2 h): 1.53 | FC Cbr3 (1427912_PM_at) (100MMF-vs-Veh, 2 h): 55.49 | FC Ces1f (1424266_PM_s_at) (100MMF-vs-Veh, 2 h): 2.71 | FC Ces1g (1449486_PM_at) (100MMF-vs-Veh, 2 h): 3.68 | FC Dnase2a (1430135_PM_at) (100MMF-vs-Veh, 2 h): 1.79 | FC Dppa5a (1416552_PM_at) (100MMF-vs-Veh, 2 h): 2.64 | FC Ereg (1419431_PM_at) (100MMF-vs-Veh, 2 h): 2.00 | FC Ero1l (1419030_PM_at) (100MMF-vs-Veh, 2 h): 1.90 | FC Esd (1441604_PM_at) (100MMF-vs-Veh, 2 h): 1.52 | FC Figf (1438953_PM_at) (100MMF-vs-Veh, 2 h): 1.63 | FC G6pd2 (1422327_PM_s_at) (100MMF-vs-Veh, 2 h): 1.74 | FC Gabarapl1 (1416418_PM_at) (100MMF-vs-Veh, 2 h): 1.52 | FC Gclc (1424296_PM_at) (100MMF-vs-Veh, 2 h): 3.99 | FC Gclc (1455959_PM_s_at) (100MMF-vs-Veh, 2 h): 3.06 | FC Gsr (1421816_PM_at) (100MMF-vs-Veh, 2 h): 2.19 | FC Gss (1441931_PM_x_at) (100MMF-vs-Veh, 2 h): 1.92 | FC Gss (1448273_PM_at) (100MMF-vs-Veh, 2 h): 1.69 | FC Gsta3 (1423436_PM_at) (100MMF-vs-Veh, 2 h): 3.23 | FC Gsta3 (1423437_PM_at) (100MMF-vs-Veh, 2 h): 3.64 | FC Gstm1 (1416416_PM_x_at) (100MMF-vs-Veh, 2 h): 2.38 | FC Gstm1 (1425627_PM_x_at) (100MMF-vs-Veh, 2 h): 2.70 | FC Gstm1 (1448330_PM_at) (100MMF-vs-Veh, 2 h): 2.47 | FC Gstm3 (1427473_PM_at) (100MMF-vs-Veh, 2 h): 2.51 | FC Gstm3 (1427474_PM_s_at) (100MMF-vs-Veh, 2 h): 1.57 | FC Hfe 1422645_PM_at (100MMF-vs-Veh, 2 h): 1.73 | FC Htatip2 (1451814_PM_a_at) (100MMF-vs-Veh, 2 h): 1.53 | FC LOC100504040 (1457279_PM_at) (100MMF-vs-Veh, 2 h): 2.24 | FC Lpin2 (1452837_PM_at) (100MMF-vs-Veh, 2 h): 1.61 | FC Lrp8 (1440882_PM_at) (100MMF-vs-Veh, 2 h): 2.23 | FC Mafg (1434054_PM_at) (100MMF-vs-Veh, 2 h): 1.95 | FC Mafg (1448916_PM_at) (100MMF-vs-Veh, 2 h): 2.01 | FC Nqo1 (1423627_PM_at) (100MMF-vs-Veh, 2 h): 2.16 | FC Osgin1 (1424022_PM_at) (100MMF-vs-Veh, 2 h): 1.98 | FC Prr5l (1452834_PM_at) (100MMF-vs-Veh, 2 h): −1.64 | FC Prss8 (1418320_PM_at) (100MMF-vs-Veh, 2 h): 2.41 | FC Setd4 (1425239_PM_at) (100MMF-vs-Veh, 2 h): 2.11 | FC Setd4 (1435405_PM_at) (100MMF-vs-Veh, 2 h): 1.93 | FC Setd4 (1460373_PM_a_at) (100MMF-vs-Veh, 2 h): 1.87
